For the assay, the system named is Staphylococcus aureus. The assay is described as follows: Antibacterial activity against methicillin-resistant Staphylococcus aureus harboring 41.7-kilobase conjugative staphylococcal multiresistance plasmid pPR9 conferring high-level mupirocin resistance. In kind it is functional.

Some results are limits rather than exact numbers.

This passage reports MIC results from ChEMBL document CHEMBL1671685, “Complete nucleotide sequence and comparative analysis of pPR9, a 41.7-kilobase conjugative staphylococcal multiresistance plasmid conferring high-level mupirocin resistance” (2010).

What is called MIC is the least concentration at which growth counts as inhibited.

Compound `C/C(=C\C(=O)OCCCCCCCCC(=O)O)C[C@@H]1OC[C@H](C[C@@H]2O[C@H]2[C@@H](C)[C@H](C)O)[C@@H](O)[C@H]1O` [MUPIROCIN] had a minimum inhibitory concentration (MIC) of no less than 1020 mg/L.
